# Assay results published in PubChem BioAssay AID248 (DTP/NCI, 2004).
# Toxic doses and inconclusive results are not listed.
# Tested on: L1210 leukemia ip in BDF1 mice, survival T/C
# Test: NCI In Vivo Anticancer Drug Screen. Data for tumor model L1210 Leukemia (intraperitoneal) in B6D2F1 (BDF1) mice
# Settings: endpoint: mean survival time, higher = longer survival
# How it was run: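 Antitumor effect is assessed in tumor-bearing animals. Survival in the compound arm is compared with a vehicle-dosed control arm and expressed as their quotient.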
# [1] = dose: 100.0 mg/kg/injection, schedule: Q01DX001 (ip), vehicle: carboxymethylcellulose (CMC)
# [2] = dose: 100.0 mg/kg/injection, schedule: Q01DX009 (ip), vehicle: saline
# [3] = dose: 200.0 mg/kg/injection, schedule: Q01DX001 (ip), vehicle: carboxymethylcellulose (CMC)
# [4] = dose: 400.0 mg/kg/injection, schedule: Q01DX001 (ip), vehicle: carboxymethylcellulose (CMC)
# [5] = dose: 100.0 mg/kg/injection, schedule: Q01DX009 (ip), vehicle: saline with Tween-80
# [6] = dose: 100.0 mg/kg/injection, schedule: Q01DX009 (ip), vehicle: Klucel (hydroxypropylcellulose) (HPC)
# [7] = dose: 100.0 mg/kg/injection, schedule: Q04DX003 (ip), vehicle: Klucel (hydroxypropylcellulose) (HPC)
# [8] = dose: 200.0 mg/kg/injection, schedule: Q01DX009 (ip), vehicle: Klucel (hydroxypropylcellulose) (HPC)
# [9] = dose: 200.0 mg/kg/injection, schedule: Q04DX003 (ip), vehicle: Klucel (hydroxypropylcellulose) (HPC)
# [10] = dose: 400.0 mg/kg/injection, schedule: Q04DX003 (ip), vehicle: Klucel (hydroxypropylcellulose) (HPC)
# [11] = dose: 100.0 mg/kg/injection, schedule: Q01DX001 (ip), vehicle: saline
# [12] = dose: 200.0 mg/kg/injection, schedule: Q01DX001 (ip), vehicle: saline
# [13] = dose: 100.0 mg/kg/injection, schedule: Q04DX003 (ip), vehicle: saline
# [14] = dose: 200.0 mg/kg/injection, schedule: Q04DX003 (ip), vehicle: saline
# [15] = dose: 400.0 mg/kg/injection, schedule: Q04DX003 (ip), vehicle: saline
# [16] = dose: 200.0 mg/kg/injection, schedule: Q04DX003 (ip), vehicle: saline with Tween-80
# [17] = dose: 400.0 mg/kg/injection, schedule: Q04DX003 (ip), vehicle: saline with Tween-80
# [18] = dose: 100.0 mg/kg/injection, schedule: Q04DX003 (ip), vehicle: saline with Tween-80
smiles,measurement,setting,value
C#CC(OC(=O)NC1CCCCC1)(c1ccccc1)c1ccccc1,T/C,"dose: 3.0 mg/kg/injection, schedule: Q01DX009 (ip), vehicle: carboxymethylcellulose (CMC)",101 % of control
same,T/C,"dose: 6.0 mg/kg/injection, schedule: Q01DX009 (ip), vehicle: carboxymethylcellulose (CMC)",100 % of control
same,T/C,"dose: 6.25 mg/kg/injection, schedule: Q01DX009 (ip), vehicle: saline with Tween-80",106 % of control
same,T/C,"dose: 12.0 mg/kg/injection, schedule: Q01DX009 (ip), vehicle: carboxymethylcellulose (CMC)",110 % of control
same,T/C,"dose: 12.5 mg/kg/injection, schedule: Q01DX009 (ip), vehicle: saline with Tween-80",106 % of control
same,T/C,"dose: 12.5 mg/kg/injection, schedule: Q01DX009 (ip), vehicle: saline",106 % of control
same,T/C,"dose: 25.0 mg/kg/injection, schedule: Q01DX009 (ip), vehicle: carboxymethylcellulose (CMC)",116 % of control
same,T/C,"dose: 25.0 mg/kg/injection, schedule: Q01DX009 (ip), vehicle: saline",114 % of control
same,T/C,"dose: 50.0 mg/kg/injection, schedule: Q01DX009 (ip), vehicle: saline",157 % of control
same,T/C,"dose: 88.0 mg/kg/injection, schedule: Q04DX003 (ip), vehicle: saline sonified",107 % of control
same,T/C,[1],97 % of control
same,T/C,"dose: 100.0 mg/kg/injection, schedule: Q01DX009 (ip), vehicle: saline sonified",96 % of control
same,T/C,[2],97 % of control
same,T/C,"dose: 132.0 mg/kg/injection, schedule: Q04DX003 (ip), vehicle: saline sonified",110 % of control
same,T/C,[3],104 % of control
same,T/C,"dose: 300.0 mg/kg/injection, schedule: Q04DX003 (ip), vehicle: saline sonified",110 % of control
same,T/C,[4],116 % of control
COc1cc(OC)c(NC(=S)Nc2ccc([N+](=O)[O-])cc2)cc1Cl,T/C,"dose: 50.0 mg/kg/injection, schedule: Q01DX009 (ip), vehicle: saline with Tween-80",92 % of control
same,T/C,[5],88 % of control
same,T/C,"dose: 200.0 mg/kg/injection, schedule: Q01DX009 (ip), vehicle: saline with Tween-80",90 % of control
CCCCC(CCC)(CCC)CCN,T/C,"dose: 2.0 mg/kg/injection, schedule: Q01DX001 (ip), vehicle: carboxymethylcellulose (CMC)",98 % of control
same,T/C,"dose: 2.5 mg/kg/injection, schedule: Q01DX015 (ip), vehicle: carboxymethylcellulose (CMC)",89 % of control
same,T/C,"dose: 4.0 mg/kg/injection, schedule: Q01DX001 (ip), vehicle: carboxymethylcellulose (CMC)",103 % of control
same,T/C,"dose: 5.0 mg/kg/injection, schedule: Q01DX015 (ip), vehicle: carboxymethylcellulose (CMC)",94 % of control
same,T/C,"dose: 8.0 mg/kg/injection, schedule: Q01DX001 (ip), vehicle: carboxymethylcellulose (CMC)",108 % of control
same,T/C,"dose: 10.0 mg/kg/injection, schedule: Q01DX015 (ip), vehicle: carboxymethylcellulose (CMC)",93 % of control
same,T/C,"dose: 16.0 mg/kg/injection, schedule: Q01DX001 (ip), vehicle: carboxymethylcellulose (CMC)",90 % of control
O=C(c1ccccc1)C1C2C=CC(C2)C1C(=O)c1ccccc1 (stereo not drawn),T/C,[6],94 % of control
same,T/C,[7],108 % of control
same,T/C,[8],107 % of control
same,T/C,[9],97 % of control
same,T/C,"dose: 400.0 mg/kg/injection, schedule: Q01DX009 (ip), vehicle: Klucel (hydroxypropylcellulose) (HPC)",93 % of control
same,T/C,[10],100 % of control
Cc1ccc(N(C=O)N=O)cc1,T/C,[11],101 % of control
same,T/C,[12],98 % of control
CC(=O)Nc1cc(C(=O)Nc2cccc(C3=NCCN3)c2)ccc1C(=O)Nc1cccc(C2=NCCN2)c1,T/C,"dose: 1.3 mg/kg/injection, schedule: Q01DX Z (ip), vehicle: methylcellulose (MC)",96 % of control
COc1ccc(CCNC(=O)C(=O)NCCc2ccc(OC)c(OC)c2)cc1OC,T/C,[7],101 % of control
same,T/C,[9],89 % of control
same,T/C,[10],92 % of control
CC(C)C1c2ccccc2C(=O)C1C(N)=O (stereo not drawn),T/C,[1],90 % of control
same,T/C,[3],100 % of control
same,T/C,[4],93 % of control
C=C(C)C(=O)O[C@@H]1C[C@@]2(C)O[C@@H]2C[C@H](O)/C(C)=C/[C@H]2OC(=O)C(=C)[C@@H]21,T/C,"dose: 25.0 mg/kg/injection, schedule: Q01DX001 (ip), vehicle: saline",91 % of control
same,T/C,"dose: 50.0 mg/kg/injection, schedule: Q01DX001 (ip), vehicle: saline",96 % of control
same,T/C,[11],112 % of control
Nc1nc(-c2ccc([N+](=O)[O-])cc2)cc(=O)[nH]1,T/C,"dose: 100.0 mg/kg/injection, schedule: Q01DX001 (ip), vehicle: saline with Tween-80",98 % of control
same,T/C,"dose: 200.0 mg/kg/injection, schedule: Q01DX001 (ip), vehicle: saline with Tween-80",93 % of control
same,T/C,"dose: 400.0 mg/kg/injection, schedule: Q01DX001 (ip), vehicle: saline with Tween-80",92 % of control
O=C1c2ccccc2C(=O)N1c1cccc([N+](=O)[O-])c1,T/C,"dose: 50.0 mg/kg/injection, schedule: Q01DX009 (ip), vehicle: Klucel (hydroxypropylcellulose) (HPC)",114 % of control
same,T/C,[6],90 % of control
same,T/C,[8],114 % of control
CC(C)(N)COS(=O)(=O)O,T/C,[2],106 % of control
same,T/C,[13],101 % of control
same,T/C,"dose: 200.0 mg/kg/injection, schedule: Q01DX009 (ip), vehicle: saline",96 % of control
same,T/C,[14],114 % of control
same,T/C,"dose: 400.0 mg/kg/injection, schedule: Q01DX009 (ip), vehicle: saline",105 % of control
same,T/C,[15],96 % of control
CN=C(NC)c1ccc(NC(=O)c2ccc(C(=O)Nc3ccc(C(=NC)NC)cc3)c([N+](=O)[O-])c2)cc1,T/C,"dose: 1.88 mg/kg/injection, schedule: Q01DX Z (ip), vehicle: saline",100 % of control
same,T/C,"dose: 3.75 mg/kg/injection, schedule: Q01DX Z (ip), vehicle: saline",111 % of control
same,T/C,"dose: 7.5 mg/kg/injection, schedule: Q01DX Z (ip), vehicle: saline",108 % of control
COc1ccc2c(c1)-c1c(ccc(OC)c1OC(=O)C(=O)c1ccccc1)CC(Cl)N(C)CC2.[O]=[Cr](=[O])([OH])[OH] (stereo not drawn),T/C,[13],89 % of control
same,T/C,[14],89 % of control
same,T/C,[15],90 % of control
O=c1cc(CO)oc(C(Nc2cccc(Cl)c2)c2ccccc2)c1O (stereo not drawn),T/C,[11],91 % of control
same,T/C,[12],95 % of control
same,T/C,"dose: 400.0 mg/kg/injection, schedule: Q01DX001 (ip), vehicle: saline",89 % of control
Cn1c(=O)c2c(nc(C3CC4C5CCC(C5)C4C3)n2C)n(C)c1=O (stereo not drawn),T/C,[1],103 % of control
same,T/C,[3],95 % of control
same,T/C,[4],95 % of control
Nc1ccc(CCc2[nH]c(N)nc(=S)c2-c2ccc(Cl)cc2)cc1,T/C,[16],110 % of control
same,T/C,[17],86 % of control
O=C1c2cccc3cc([N+](=O)[O-])cc(c23)C(=O)N1Cc1ccco1,T/C,"dose: 100.0 mg/kg/injection, schedule: Q04DX002 (ip), vehicle: saline with Tween-80",95 % of control
same,T/C,"dose: 200.0 mg/kg/injection, schedule: Q04DX002 (ip), vehicle: saline with Tween-80",120 % of control
same,T/C,"dose: 400.0 mg/kg/injection, schedule: Q04DX002 (ip), vehicle: saline with Tween-80",88 % of control
O=[N+]([O-])c1ncn[nH]1,T/C,[5],96 % of control
same,T/C,[18],102 % of control
same,T/C,[16],97 % of control
same,T/C,"dose: 400.0 mg/kg/injection, schedule: Q01DX009 (ip), vehicle: saline with Tween-80",87 % of control
same,T/C,[17],92 % of control
CCCCCCCC(=O)NO,T/C,[18],98 % of control
same,T/C,[16],102 % of control
same,T/C,[17],102 % of control
Cc1ccc(S(=O)(=O)OCC2OC(n3cnc4c(N)ncnc43)C(O)C2O)cc1 (stereo not drawn),T/C,"dose: 100.0 mg/kg/injection, schedule: Q01DX005 (ip), vehicle: saline",105 % of control
same,T/C,"dose: 200.0 mg/kg/injection, schedule: Q01DX005 (ip), vehicle: saline",95 % of control
CCCCC(=O)N/N=C\c1c(O)cc(OC)cc1OC,T/C,[1],87 % of control
same,T/C,[3],87 % of control
same,T/C,[4],93 % of control
C[n+]1ccccc1SC12CC3CC(CC(C3)C1)C2,T/C,"dose: 10.0 mg/kg/injection, schedule: Q01DX009 (ip), vehicle: Klucel (hydroxypropylcellulose) (HPC)",113 % of control
